# Measured values from patent US20260217776A1, “COMPOUND WITH ANTITUMOR ACTIVITY, COR[…] AND COR[…]” (priority 2023, published 2026).
# Read-outs that look alike come from different tables or passages of the source. Bridge positions count the residues as written; N and C are the ends. Peptide text beside a SMILES is read from it.
# Tests used:
# [1] = test system: KB31 human epidermoid carcinoma cell line; details: for cell viability: KB31 line, peptide 150 μM, untreated 100%
# Description: (§1) The cytotoxic activity assays were performed using a […] human epidermoid carcinoma cell line (American Type Culture Collection) and, as control, non-tumor cell lines of normal dermal fibroblasts (NDFa) and immortalized human keratinocytes (HACAT).
# (§2) The used cells were placed in culture dishes (Corning®) and treated with the peptide (at a concentration of 150 μM) for 1 day and 6 days. In parallel, the same lines were prepared, without being treated with the peptide, as a negative control.
# (§3) The analyzes were performed with a resazurin-based cytotoxicity assay (Sigma Aldrich) and a trypan blue exclusion assay.
# in vitro = test: in vitro
# Description: as §1, §2, §3
# [2] = test system: KB31 human epidermoid carcinoma cell line; test: apoptotic activity assay (BD cell viability kit); assay type: cell-based; details: peptide 150 μM
# Description: (§4) The same cell lines were used to verify the apoptotic activity of the peptide, providing the same treatment and the same negative controls. The percentage of apoptotic cells was determined using a BD™ cell viability kit (BD Biosciences), following the manufacturer's instructions. The results are expressed as average values in percentages taking into account the standard error of the mean (SEM).
# [3] = test system: immortalized human keratinocytes (HACAT); test: apoptotic activity assay (BD cell viability kit); assay type: cell-based; details: HACAT line, peptide 150 μM
# Description: as §4
# [4] = test system: normal dermal fibroblasts (NDFa); test: apoptotic activity assay (BD cell viability kit); assay type: cell-based; details: NDFa line, peptide 150 μM
# Description: as §4
# [5] = human, immortalized keratinocytes (HACAT)
# [6] = normal dermal fibroblasts (NDFa)
compound,measurement,setting,value
CC(C)C[C@@H]1NC(=O)[C@H](CC(=O)O)NC(=O)[C@H](CC(N)=O)NC(=O)[C@H](CCCCN)NC(=O)[C@H](CCCNC(=N)N)NC(=O)CNC(=O)[C@H](CCC(=O)O)NC(=O)[C@H](Cc2c[nH]cn2)NC(=O)CNC(=O)[C@H](CCCNC(=N)N)NC(=O)[C@H](CCC(=O)O)NC(=O)[C@H](CO)NC(=O)[C@H](CC(C)C)NC(=O)[C@H]([C@@H](C)O)NC(=O)[C@H](CC(C)C)NC(=O)[C@H](CC(C)C)NC(=O)[C@@H]2CCCN2C(=O)[C@@H](NC(=O)[C@@H](N)CO)CSSC[C@@H](C(=O)N[C@@H](CCCNC(=N)N)C(=O)O)NC(=O)[C@H](CCC(=O)O)NC(=O)[C@H](C(C)C)NC(=O)[C@H](CCCCN)NC(=O)[C@H](CCCCN)NC1=O [peptide] (H-SCPLLTLSERGHEGRKNDLKKVECR-OH; disulfide 2-24; N-terminus assumed),cell viability,[1]; 1 day,77%
same,cell viability,[1]; 6 days,approximately 45%
same,selectivity toward tumor cells,"[1]; KB31 tumor cells versus non-tumor NDFa and HACAT, cytotoxic and apoptotic assays",good selectivity toward tumor cells
same,"viability at 1 day, 150 μM",in vitro; [5],~85%
same,"viability at 6 days, 150 μM",in vitro; [5],~85%
same,"viability at 1 day, 150 μM",in vitro; [6],~80%
same,"viability at 6 days, 150 μM",in vitro; [6],~80%
same,apoptosis (percentage of apoptotic cells),[2]; 1 day,less than 5%
same,apoptosis (percentage of apoptotic cells),"[2]; 6 days, negative control just over 10%",more than 50%
same,apoptosis (percentage of apoptotic cells),[3]; 1 day,less than 5%
same,apoptosis (percentage of apoptotic cells),[3]; 6 days,less than 5%
same,apoptosis (percentage of apoptotic cells),[4]; 1 day,less than 5%
same,apoptosis (percentage of apoptotic cells),[4]; 6 days,less than 5%
